Results published in patent US20240307370A1, “SIGMA RECEPTOR LIGANDS FOR TREATING SARS-COV-2 INFECTION” (University of Florida Research Foundation, Incorporated, priority 2021, published 2024).
Values after ≈ are worked out from the molar mass of the structure shown. Read-outs that look alike come from different tables or passages of the source.

Legend:
SARS-CoV-2 [1] = experiment: microbe, parasite or virus in culture; conditions: Severe acute respiratory syndrome coronavirus 2, Vero C1008, 72 h
SARS-CoV-2 [2] = format: cell-based
SARS-CoV-2 [3] = format: cell-based; conditions: H23-hACE2, MOI 0.01, 48 hpi, vs mock treated
SARS-CoV-2 [4] = format: cell-based; conditions: Vero E6, MOI 0.2, 72 h
H23 cells = experiment: Phospholipidosis assay; conditions: 48 h treatment, 100 μg/ml
SARS-CoV-2 [5] = conditions: Vero E6, MOI 0.2, 72 h
SARS-CoV-2 [6] = conditions: cited from earlier work
SARS-CoV-2 [7] = conditions: cited from earlier work; remark: listed apart in the source
Vero E6 cells = experiment: Toxicity of ligand alone (LDH release, CC50); conditions: drug alone, Vero E6, 72 h, LDH release
sigma-1 over sigma-2 = conditions: cited from earlier work
[8] = Toxicity of ligand alone (LDH release, CC50); conditions: African green monkey
SARS-CoV-2 [9] = experiment: Plaque reduction assay in Vero E6 monolayers; format: cell-based; conditions: Vero E6, plaques counted at 72 h; for EC50: Severe acute respiratory syndrome coronavirus 2, Vero C1008, 72 h
SARS-CoV-2 [10] = experiment: K18-hACE2 mouse SARS-CoV-2 infection model; format: in vivo, mice
SARS-CoV-2 [11] = conditions: previously published study; cited from earlier work
[12] = read-out: Cytotoxicity EC50 (inhibition of SARS-CoV-2-induced cytotoxicity)
[13] = read-out: EC50 for inhibition of SARS-CoV-2 induced cytotoxicity
[14] = 45 mg/kg daily intraperitoneal from 24 hours after infection

Q: Which results are given for `CN(C)CCOC(c1ccccc1)c1ccccc1` [diphenhydramine, reference compound]?
A: EC50 (SARS-CoV-2 [1]; [12]): 122 mg/L; EC50 (SARS-CoV-2 [1]; [13]): 418 µM; reduction of N-protein RNA copies (qPCR) (SARS-CoV-2 [2]): 32.2%; decrease of SARS-CoV-2 concentration (TCID50) (SARS-CoV-2 [3]; 40 μg/ml): ~2 log

Q: What does the source list for `O=c1sc2cc(CCCF)ccc2n1CCN1CCCCCC1` [CM304]?
A: reduction of cytopathic effects (CPE) by microscopy (SARS-CoV-2 [4]): unable to visibly reduce CPE; more virus detected (RNA levels) compared to the 48 hours DMSO control (SARS-CoV-2 [2]): 61.2%; phospholipidosis level (H23 cells): highest mean levels of phospholipidosis; inhibition of SARS-CoV-2-induced cytotoxicity (SARS-CoV-2 [5]): insignificant viral inhibition

Q: Which “in vitro SARS-CoV-2 inhibitory effects” value (SARS-CoV-2 [6]) does the source give for `COc1cccc2c1CCCC2CCCN1CCN(C2CCCCC2)CC1` (centres unmarked) [PB28] here?
A: sub-nanomolar

Q: What about the in vivo efficacy (SARS-CoV-2 [7]) of the same compound?
A: ineffective

Q: What about the in vivo toxicity (SARS-CoV-2 [7]) of the same compound?
A: toxic

Q: For `COc1ccc(CCN2CCN(CCCc3ccccc3)CC2)cc1OC` [SA4503, cutamesine, reference compound], which “reduction of cytopathic effects (CPE) by microscopy” value (SARS-CoV-2 [4]) is on record?
A: unable to visibly reduce CPE

Q: And the “Cytotoxicity CC50” value (Vero E6 cells)?
A: 198.7 mg/L

Q: And the “viral replication reduced by (qPCR)” value (SARS-CoV-2 [2])?
A: 56.2%

Q: And the “Cytotoxicity EC50 (inhibition of SARS-CoV-2-induced cytotoxicity)” value (SARS-CoV-2 [5]; LDH release)?
A: 110.5 mg/L

Q: And the EC50 (SARS-CoV-2 [5]; read-out: EC50 for inhibition of SARS-CoV-2 induced cytotoxicity, LDH release)?
A: 300 µM

Q: What about the “preference for sigma-1 over sigma-2” value (sigma-1 over sigma-2) of the same compound?
A: > 15 fold

Q: Which results are given for `CC(CCCn1c(=O)sc2cc(F)ccc21)N1CCN(C2CCCCC2)CC1` (centres unmarked) [AZ66]?
A: reduction of cytopathic effects (CPE) by microscopy (SARS-CoV-2 [4]): greatly reduce cytopathic effects; EC50 (SARS-CoV-2 [1]; [12]): 45.1 mg/L; EC50 (SARS-CoV-2 [1]; [13]): 86.4 µM; CC50 at 72 h [8]: 128 mg/L (≈ 315 µM); viral replication reduced by (qPCR) (SARS-CoV-2 [2]): 99.9%; viral replication reduction (qPCR) (SARS-CoV-2 [2]): 3 log; EC50 (SARS-CoV-2 [9]; read-out: EC50 by plaque reduction assay): 15.9 µM; EC50 (SARS-CoV-2 [9]; read-out: Plaque reduction EC50): 6.46 mg/L; Plaque reduction EC50 (SARS-CoV-2 [9]): 6.47 mg/L; decrease of SARS-CoV-2 concentration (TCID50) (SARS-CoV-2 [3]; 50 μg/ml): ~3 log; weight loss associated with COVID-19 (SARS-CoV-2 [10]; [14]): delayed weight loss

Q: Which results are given for `COc1cc2c(cc1OC)CN(CCCCn1c(=O)n(C)c3ccccc31)CC2` [CM398, 1-(4-(6,7-Dimethoxy-3,4-dihydroisoquinolin-2(1H)-yl)butyl)-3-methyl-1H-benzo[d]imidazol-2(3H)-one]?
A: reduction of cytopathic effects (CPE) by microscopy (SARS-CoV-2 [4]): greatly reduce cytopathic effects; EC50 (SARS-CoV-2 [1]; [12]): 51.3 mg/L; EC50 (SARS-CoV-2 [1]; [13]): 130 µM; CC50 at 72 h [8]: 111 mg/L (≈ 280 µM); viral replication reduced by (qPCR) (SARS-CoV-2 [2]): 97.5%; decrease of SARS-CoV-2 concentration (TCID50) (SARS-CoV-2 [3]; 100 μg/ml): ~1 log; weight loss associated with COVID-19 (SARS-CoV-2 [10]; [14]): delayed weight loss; median survival (SARS-CoV-2 [10]; 45 mg/kg daily intraperitoneal from 24 hours after infection, saline 5.5 days, not statistically significant): 6.5 days; survival and recovery (SARS-CoV-2 [10]; 45 mg/kg daily intraperitoneal, group of 5 mice): One mouse in the CM398 group survived and regained all weight lost

Q: Which “reported SI (CC50/EC50)” value (SARS-CoV-2 [11]) does the source give for `CCC(CC)COC(=O)[C@H](C)N[P@](=O)(OC[C@H]1O[C@@](C#N)(c2ccc3c(N)ncnn23)[C@H](O)[C@@H]1O)Oc1ccccc1` [remdesivir] here?
A: > 4.96
